21 molecules from BindingDB's records for doi:10.1016/j.bmcl.2013.06.055 (Takeda California, 2013) can be followed below.

Structures are written as SMILES.

The nature of test [1]: Inhibition of PARP1 in human Jurkat cells assessed as reduction of cell viability after 96 hrs by MTS assay.
Test [2] is described as follows: Inhibition of PARP1 in human Jurkat cells assessed as reduction of cell viability after 96 hrs by MTS assay in presence of 100 uM of temozolomide.

As to `CCNC(=O)c1ccc(N2CCN(Cc3cc(C)c4c(c3)NC(=O)C(C)O4)CC2)c(C)c1` (configuration not stated), the EC50 in test [1] is 55 µM; in test [2], 9 µM.

On to `Cc1cc(C(=O)NC2CC2)ccc1N1CCN(Cc2cc(C)c3c(c2)NC(=O)C(C)O3)CC1` (configuration not stated), for which the EC50 was 100 µM in test [1] and 18 µM in test [2].

`CCNC(=O)c1ccc(N2CCN(Cc3cc4c(c(OCC)c3)OC(C)C(=O)N4)CC2)c(C)c1` (configuration not stated): the EC50 in test [1] was 100 µM; in test [2], 0.02 µM.

With `CCNC(=O)c1ccc(N2CCN(Cc3ccc4c(c3)NC(=O)C(C)O4)CC2)cc1` (configuration not stated), the EC50 was found to be 42 µM in test [1] and 15 µM in test [2].

In the case of `CNC(=O)c1ccc(N2CCN(Cc3cc(C)c4c(c3)NC(=O)C(C)O4)CC2)c(C)c1` (configuration not stated), the EC50 in test [1] is 78 µM; in test [2], 9 µM.

As to `CCNC(=O)c1ccc(N2CCN(Cc3ccc4c(c3)NC(=O)C(C)O4)CC2)c(Cl)c1` (configuration not stated), the EC50 came out at 100 µM in test [1] and 4 µM in test [2].

Consider `CCNC(=O)c1ccc(N2CCN(Cc3cc(C)c4c(c3)NC(=O)C(C)O4)CC2)c(Cl)c1` (configuration not stated), for which the EC50 came to 47 µM in test [1] and 14 µM in test [2].

Consider `CCNC(=O)c1ccc(N2CCN(Cc3cc4c(c(OC)c3)OC(C)C(=O)N4)CC2)cc1` (configuration not stated), for which the EC50 was found to be 151 µM in test [1] and 16 µM in test [2].

As to `CCOc1cc(CN2CCN(c3ccc(C(=O)NC4CC4)cc3C)CC2)cc2c1OC(C)C(=O)N2` (configuration not stated), the EC50 in test [1] came to 100 µM; in test [2], 0.02 µM.

With `Cc1cc(CN2CCN(c3ccc(C(=O)NC4CC4)cc3)CC2)cc2c1OC(C)C(=O)N2` (configuration not stated), the EC50 in test [1] was 100 µM; in test [2] it was 5 µM.

`CNC(=O)c1ccc(N2CCN(Cc3cc4c(c(OC)c3)OC(C)C(=O)N4)CC2)cc1` (configuration not stated): the EC50 in test [1] is 251 µM; in test [2], 27 µM.

Regarding `COc1cc(CN2CCN(c3ccc(C(=O)NC4CC4)cc3)CC2)cc2c1OC(C)C(=O)N2` (configuration not stated), the EC50 came to 162 µM in test [1] and 16 µM in test [2].

On to `CCNC(=O)c1ccc(N2CCN(Cc3cc(C)c4c(c3)NC(=O)C(C)O4)CC2)cc1` (configuration not stated), for which the values for the EC50 in test [1] and in test [2] were 94 µM and 9 µM, respectively.

As to `Cc1cc(CN2CCN(c3ccc(C(=O)NC4CC4)cc3Cl)CC2)cc2c1OC(C)C(=O)N2` (configuration not stated), the figures for the EC50 in test [1] and in test [2] were 43 µM and 0.01 µM, respectively.

For the molecule `CNC(=O)c1ccc(N2CCN(Cc3cc(C)c4c(c3)NC(=O)C(C)O4)CC2)c(Cl)c1` (configuration not stated), the results for the EC50 in test [1] and in test [2] were 45 µM and 14 µM, respectively.

With `CCOc1cc(CN2CCN(c3ccc(C(=O)NC)cc3C)CC2)cc2c1OC(C)C(=O)N2` (configuration not stated), the figures for the EC50 in test [1] and in test [2] were 26 µM and 0.02 µM, respectively.

As for `CCNC(=O)c1ccc(N2CCN(Cc3cc4c(c(OC)c3)OC(C)C(=O)N4)CC2)c(C)c1` (configuration not stated), the EC50 in test [1] was 44 µM; in test [2], 0.01 µM.

With `CNC(=O)c1ccc(N2CCN(Cc3cc(C)c4c(c3)NC(=O)C(C)O4)CC2)cc1` (configuration not stated), the EC50 in test [1] was 75 µM; in test [2], 11 µM.

As for `CNC(=O)c1ccc(N2CCN(Cc3cc4c(c(OC)c3)OC(C)C(=O)N4)CC2)c(C)c1` (configuration not stated), the values for the EC50 in test [1] and in test [2] were 100 µM and 0.06 µM, respectively.

`CNC(=O)c1ccc(N2CCN(Cc3ccc4c(c3)NC(=O)C(C)O4)CC2)cc1` (configuration not stated): the EC50 came out at 14 µM in test [1] and 15 µM in test [2].

As to `COc1cc(CN2CCN(c3ccc(C(=O)NC4CC4)cc3C)CC2)cc2c1OC(C)C(=O)N2` (configuration not stated), the EC50 turned out to be 77 µM in test [1] and 0.02 µM in test [2].
